Read-outs that look alike come from different tables or passages of the source. Marks after values point to notes of the source that are not given here.

For series [1], the system named is P. falciparum Dd2 chloroquine-resistant strain. Kind of series: In vitro antiplasmodial activity, SYBR green I fluorescence assay. It counts as cell-based, Plasmodium falciparum. On the procedure:
Normalized fluorescence signals were measured against controls with 1% DMSO (100% growth) and after exposure to a supralethal concentration (10 μM) of chloroquine (0% growth). Determination of the 50% inhibitory concentration (IC50) was performed from a log concentration versus the mean normalized fluorescence signal curve using GraphPad Prism software (v5.0). Each biological replicate consisted of three technical repeats, with three independent biological replicates performed.

Series [2] deals with human ovarian epithelial (HOE) cells. The following applies: cited from earlier work.
The subject of series [3] is P. falciparum chloroquine-sensitive strain D6. To be noted: read-out: IC50 against P. falciparum strain D6; cited from earlier work.
For series [4], the system named is Plasmodium berghei. Kind of series: Prophylactic activity in P. berghei infection of mice. It counts as in vivo. To be noted: prophylactic model; for Parasitemia level after infection for 72 h / MST: mean ± SEM, n = 6; for MST: over 30 days. On the procedure:
(§1) (i) Malaria parasite. Chloroquine-sensitive strains of P. berghei were sourced from the National Institute of Medical Research (NIMER), Yaba Lagos, Nigeria, and maintained by subpassage in mice.
(§2) (ii) Parasite inoculation. Each mouse was inoculated intraperitoneally with about 1 × 10^7 P. berghei parasitized erythrocytes in 0.2 ml of infected blood (5 × 10^7 P. berghei erythrocytes/ml) according to published procedure ([39]).
(§3) (iii) Experimental animals. Female and male Swiss albino mice (18 to 25 g) were obtained from the University of Uyo’s animal house. Before use, mice were kept in cages and acclimatized for 10 days. All mice were kept in cross-ventilated rooms at room temperature. The care and use of mice were performed in accordance with the National Institutes of Health Guide for the Care and Use of Laboratory Animals (1996). This investigation was approved by the University of Uyo’s Animal Ethics Committee.
(§4) (v) Drug administration. Cycleanine, chloroquine, and pyrimethamine were prepared in water and administered orally with the aid of a stainless metallic feeding cannula.
(vii) Prophylactic activity of cycleanine. The prophylactic activity of cycleanine was evaluated using a previously described method ([42], [43]). The mice were randomly divided into four groups of six mice per group. Groups 1 and 2 were given 25 and 50 mg/kg of cycleanine, respectively, group 3 was given 1.2 mg/kg of pyrimethamine (positive control), and group 4 was given 10 ml/kg of distilled water (negative control). Administration of cycleanine or the drug continued for three consecutive days. On the fourth day, the mice were inoculated with P. berghei. The parasitemia level was evaluated by blood smears after 3 days. The survival times (days) of the mice were recorded over a period of 30 days, and MST were calculated.

Series [5] relates to P. falciparum chloroquine-sensitive clone 3D7. More on the design: method as in PMID 26594753. To be noted: read-out: IC50 against P. falciparum chloroquine-sensitive clone 3D7; cited from earlier work.
Series [6] is described as follows: Acute median lethal dose (LD50) of cycleanine in mice. It counts as in vivo. To be noted: 24 h, intraperitoneal. On the procedure:
as §3
(iv) Determination of median lethal dose (LD50) of cycleanine. The median lethal dose (LD50) of cycleanine was determined using albino mice by the intraperitoneal (i.p.) route ([40]). Different doses of cycleanine (10 to 5,000 mg/kg) were intraperitoneally administered to groups of three mice each. The mice were monitored for manifestation of physical signs of toxicity, including decrease of motor activity, writhing, decrease of body/limb tone, weakness, and death. The number of deaths in each group within 24 h was recorded. The LD50 value was calculated as the geometrical means of the minimum dose producing 100% mortality and the maximum dose producing 0%.

The test system of series [7] is HCT-116 human colon carcinoma cells. To be noted: cited from earlier work.
In series [8] the test system is chloroquine-resistant P. falciparum strain W2. To be noted: cited from earlier work.
For series [9], the system named is human oral epidermoid carcinoma (KB) cells. The arrangement: method as in PMID 9917283. The following applies: cited from earlier work.
Series [10] deals with Plasmodium berghei. The series can be described thus: Suppressive activity during early P. berghei infection of mice. Type of series: in vivo. To be noted: suppressive model; for Parasitemia after infection for 96 h / MST: mean ± SEM, n = 6; for MST: over 30 days. As to the method: as §1, §2, §3, §4
(vi) Suppressive activity of cycleanine. The schizontocidal activity of cycleanine and chloroquine against early P. berghei infection in mice was measured according to an established protocol ([25], [41], [42]). On the first day, 20 to 24 mice were infected with the parasite and randomly separated into four groups. The mice in groups 1 and 2 were given 25 and 50 mg/kg of cycleanine, respectively, those in group 3 were given 5 mg/kg of chloroquine (positive control), and those in group 4 were given distilled water (10 ml/kg, negative control) for four consecutive days. Thin films were made from the tail blood on the fifth day. Parasitized erythrocytes were counted in stained films (Giemsa stain) under a microscope. The average suppression of parasitemia (%) was calculated as follows: average % parasitemia positive control−average % parasitemia negative control/average % parasitemia negative control×100
The MST (in days) of the mice in each group was determined over a period of 30 days.

On the set-up of series [11]: method as in earlier work. To be noted: mice; cited from earlier work.
Series [12] concerns Plasmodium berghei. Kind of series: Curative activity during established P. berghei infection of mice. It counts as in vivo. The following applies: curative model, n = 6; for MST: over 30 days. As to the method:
as §1, §2, §3, §4
(viii) Curative activity of cycleanine. The curative activity of cycleanine was assessed according to a method described previously ([42], [44]). P. berghei was injected intraperitoneally into another 24 mice on the first day. Three days later, the mice were also separated into four groups of six mice per group. Groups 1 and 2 were administered different doses of cycleanine, 25 and 50 mg/kg, respectively, group 3 was given 5 mg/kg chloroquine (positive control), and group 4 was given 10 ml/kg distilled water (negative control). Cycleanine and chloroquine were given once a day for 5 days. Mouse tail blood samples were collected on each day, and Giemsa-stained thin smears were prepared to determine the parasitemia level. The MST of the mice in each group was determined over a period of 30 days.

Setting [13] is: Plasmodium falciparum, DD2, chloroquine-resistant strain, mean ± SD, n = 3 independent biological repeats, read-out: IC50 against P. falciparum strain Dd2.
Setting [14] is: read-out: CC50 against HOE, human ovarian epithelial (HOE) cells.
The mark [15] stands for this setting: chloroquine-resistant strain, ref 16, read-out: IC50 against P. falciparum strain W2.
Setting [16] is: chloroquine-resistant strain, ref 18, read-out: IC50 against P. falciparum strain W2.
[17] abbreviates: 25 mg/kg oral, mean ± SEM, 25 mg/kg.
Where [18] appears, read: 50 mg/kg oral, mean ± SEM, 50 mg/kg.
Setting [19] is: Plasmodium falciparum, DD2, read-out: IC50 against P. falciparum strain Dd2.

One may read the IC50 as the concentration at which inhibition is half-maximal. Usually CC50 stands for the concentration giving 50% cytotoxicity. In the case of `COc1cc2c3c(c1OC)Oc1ccc(cc1)C[C@H]1c4c(c(CN(C)C)c(OC)c(OC)c4Oc4ccc(cc4)C[C@@H]3N(C)CC2)CCN1C` [5-[(Dimethylamino)methyl]cycleanine (4), 5-[(Dimethylamino)methyl]cycleanine], the IC50 in series [1] (setting [13]) was found to be 0.7 ± 0.1 µM. The CC50 in series [2] (setting [14]) was 10 ± 0.2 µM.
Usually LD50 stands for the dose expected to kill half of the subjects tested. For the compound cycleanine, the IC50 in series [1] (chloroquine-resistant strain, mean ± SD, n = 3 independent biological repeats, read-out: IC50 against P. falciparum strain Dd2) is 17.7 ± 2 µM; in series [3], 0.07 µM; in [5], 0.08 µM; in series [8] (setting [15]) it was 0.25 µM; in series [8] (setting [16]) it was 4.5 µM. Moreover, the “Suppression of parasitemia level after infection for 72 h” value came out at 43.4% with Plasmodium berghei [4] (25 mg/kg per day oral) and 59.0% in the series on Plasmodium berghei [4] (50 mg/kg per day oral). Besides, the “Parasitemia level after infection for 72 h” value in the series on Plasmodium berghei [4] (25 mg/kg per day oral) was 11.5 ± 0.9^b %; with Plasmodium berghei [4] (50 mg/kg per day oral), 8.3 ± 1.0^b %. Besides, the MST in the series with Plasmodium berghei [4] (25 mg/kg per day oral) was 23.0 ± 0.6^b days; in the series on Plasmodium berghei [4] (50 mg/kg per day oral), 24.5 ± 0.6^b days; in the series with Plasmodium berghei [10] (25 mg/kg per day oral), 24.7 ± 1.1^b days; in the series on Plasmodium berghei [10] (50 mg/kg per day oral), 28.2 ± 0.9^b days; in the series with Plasmodium berghei [12] (setting [17]) it was 21 days; with Plasmodium berghei [12] (setting [18]), 25 days. Besides, the CC50 is 35 ± 0.1 µM in series [2] (setting [14]) and 531 µM in series [7] (read-out: CC50 against cancer cell line HCT, HCT-116 human colon carcinoma cells). For the same compound, the “Acute median lethal dose (LD50)” value in [6] is 4500 mg/kg. The “CC50 against cancer cell line KB” value in [9] is greater than 33.7 µM. The “Suppression of parasitemia at 96 h” value with Plasmodium berghei [10] (25 mg/kg per day oral) is 44.7%; with Plasmodium berghei [10] (50 mg/kg per day oral), 86.5%. The results for the “Parasitemia after infection for 96 h” value in the series with Plasmodium berghei [10] (25 mg/kg per day oral) and with Plasmodium berghei [10] (50 mg/kg per day oral) were 15.7 ± 1.8^b % and 3.8 ± 0.7^b %, respectively. In addition, the LD50 in [11] was 1100 mg/kg. Further, the “Parasitaemia Day 3” value in the series with Plasmodium berghei [12] (25 mg/kg oral, mean ± SEM) turned out to be 12.7 ± 1.7%; in the series with Plasmodium berghei [12] (50 mg/kg oral, mean ± SEM) it was 15.5 ± 0.9%. Besides, the “Parasitaemia Day 5” value in the series on Plasmodium berghei [12] (setting [17]) is given as 13.3%; in the series on Plasmodium berghei [12] (setting [18]), 10.5%. In the series on Plasmodium berghei [12] (50 mg/kg oral, mean ± SEM), the “Parasitaemia Day 6” value was 6.0 ± 1.0%. For the same compound, in the series on Plasmodium berghei [12] (50 mg/kg oral, mean ± SEM), the “Parasitaemia Day 7” value is on record as 3.7 ± 1.1%.
In the case of `CCN(CC)CCCC(C)Nc1ccnc2cc(Cl)ccc12` (centres unmarked) [Chloroquine, reference compound], the IC50 in series [1] (setting [19]) turned out to be 0.18 ± 0.03 µM. Further, the IC50 in series [3] was 0.006 µM. Further, the IC50 in [8] (setting [15]) was 0.135 µM. Also, the “CC50 against cancer cell line KB” value in [9] is given as 33.7^b μM. Moreover, in the series on Plasmodium berghei [10] (5 mg/kg per day oral), the “Suppression of parasitemia at 96 h” value worked out at 94.0%, the “Parasitemia after infection for 96 h” value is 2.0 ± 0.8^b % and the MST was 30.0 ± 0.0^b days. In the series with Plasmodium berghei [12] (5 mg/kg oral, mean ± SEM), the “Parasitaemia Day 3” value turned out to be 12.4 ± 0.5% and the “Parasitaemia Day 4” value was 2.1 ± 0.2%. Also, in the series with Plasmodium berghei [12] (5 mg/kg oral), the “Parasitaemia Day 6” value came to 0.0% and the “Parasitaemia Day 7” value was 0.0%. The “Parasitaemia Day 5” value in the series on Plasmodium berghei [12] (5 mg/kg oral, 5 mg/kg) stood at 0%. In the series on Plasmodium berghei [12] (5 mg/kg oral, mean ± SEM, 5 mg/kg), this compound came in with an MST of 30 days.
Turning to `C#CCNCc1c2c3c(c(OC)c1OC)Oc1ccc(cc1)C[C@H]1c4c(cc(OC)c(OC)c4Oc4ccc(cc4)C[C@@H]3N(C)CC2)CCN1C` [5-[(Propargylamino)methyl]cycleanine (5), 5-[(Propargylamino)methyl]cycleanine], the IC50 in series [1] (setting [13]) worked out at 1.8 ± 0.2 µM. Further, in series [2] (setting [14]), the CC50 is 32 ± 1.6 µM.
`COc1cc2c3c(c1O)Oc1ccc(cc1)C[C@@H]1c4c(cc(OC)c(O)c4Oc4ccc(cc4)C[C@H]3N(C)CC2)CCN1C` [Isochondodendrine (2), isochondodendrine]: the IC50 in [1] (setting [19]) was 6.1 ± 1.3 µM; in series [8] (setting [16]) it was 0.2 µM. The CC50 in series [2] is 10.5 ± 1.2 µM; in series [7] it was 29 µM.
Turning to `COc1cc2c3c4c1Oc1cc5c(cc1O4)C(Cc1ccc(O)c(c1)Oc1ccc(cc1)CC3NCC2)N(C)CC5` (centres unmarked) [2′-Norcocsuline (3), 2′-norcocsuline], the IC50 is 7 ± 1.6 µM in [1] (setting [13]), 0.048 µM in series [3] and 0.248 µM in series [8] (read-out: IC50 against chloroquine-resistant clone W2). The CC50 in [2] (setting [14]) was 8 ± 0.2 µM. Moreover, the “CC50 against cancer cell line KB” value in series [9] is listed as 3.8^b μM.
In the case of `CCc1nc(N)nc(N)c1-c1ccc(Cl)cc1` [Pyrimethamine, reference compound], in the series on Plasmodium berghei [4] (1.2 mg/kg per day oral), the “Suppression of parasitemia level after infection for 72 h” value worked out at 76.2%, the “Parasitemia level after infection for 72 h” value is 4.8 ± 1.1^b % and the MST is reported as 29.8 ± 0.2^b days.
